Measurements: patent US20240197869A1, “HYPERACTIVATORS OF MAMMALIAN DENDRITIC CELLS” (Corner Therapeutics, Inc., priority 2021, published 2024)
Entries after “also recorded” stand apart in the source; their conditions may differ. Residues, ends and D or L forms follow the SMILES beside them. *: point of attachment. X1 = CCCCCCCCCCCCCCCC(=O)OCC(C*)OC(=O)CCCCCCCCCCCCCCC

Tests used:
[1] = test system: human monocyte-derived dendritic cells (moDCs); assay: Lipid titration: IL-1β secretion by LPS-activated human moDCs; type: cell-based; conditions: for Activity Units (AU) ± SD (lipid activity index): reciprocal of lowest concentration giving IL-1β two-fold over LPS x highest IL-1β signal
Description: (§1) Quantification of IL-1beta Secretion. IL-1beta secretion was assessed using the ELISA MAX Deluxe Set Human IL-1beta kit (Biolegend). ELISAs were performed according to manufacturer's instructions with the following modifications: i) total sample volume for incubation was reduced from […] the top standard was prepared at […], with two-fold dilutions to […]; and iii) sample incubation was completed overnight at 4 C on an orbital shaker. […] To determine IL-1beta concentration in supernatants, sample IL-1beta concentrations were interpolated using a standard curve via 4PL analysis on GraphPad Prism 9 (GraphPad Software). The interpolated results of samples were then adjusted for any dilutions made to the supernatant.

[2] = test system: human monocyte-derived dendritic cells (moDCs); assay: DAMP screen: IL-1β secretion by LPS-activated human moDCs (ELISA); type: cell-based
Description: Danger-Associated Molecular Pattern (DAMP) Screen.
as §1

[3] = test system: human monocyte-derived dendritic cells (moDCs); assay: DAMP screen: viability of human moDCs (CellTiter-Glo)
[4] = test system: human monocyte-derived dendritic cells (moDCs); assay: Lipid titration: viability of human moDCs (CellTiter-Glo); conditions: 10.3 μM lipid + LPS 1 μg/mL, 2 days; relative to LPS-treated moDCs; Table 1-5
Description: Lipid Titration. After 6 days of differentiation into moDC, cells were collected and counted. Cells were replated at 100,000 cells/well in R10 media in 96-well flat bottom tissue culture-treated plates. LPS, serotype 055:B5 (Enzo Life Sciences) was added to a final concentration of 1 μg/mL in each well. After the addition of LPS, lipids were prepared. […] After two days of culture, cell cultures were used for endpoint analyses.
Endpoint Analyses. After culturing moDCs with PAMPs and DAMPs for two days, supernatant and cell samples were collected for analysis. Cells in culture were pelleted by centrifugation at 400×g for 5 min.
Quantification of Cell Viability. Cell viability was assessed by quantifying the presence of ATP as an indicator of metabolically active cells using the CellTiter-Glo Luminescent Cell Viability Assay (Promega). Metabolic activity was assessed following manufacturer's instructions. The CellTiter-Glo reagent was mixed with the cell pellets and remaining supernatant, and transferred to a white, opaque 96-well plate. Luminescence was measured on all wavelengths on a Spectramax iD3 plate reader (Molecular Devices) using an integration time of 500 ms. Percent viability was calculated relative to the control condition of moDCs treated with LPS.
Statistical Analyses. […] For each tested condition, cells from each donor were plated to be tested in triplicate.

[5] = test system: human monocyte-derived dendritic cells (moDCs); assay: PAMP screen: IL-1β secretion by human moDCs with PRR agonist and 22:0 Lyso PC; type: cell-based; conditions: 2 days
Description: (§2) Pathogen-Associated Molecular Pattern (PAMP) Screen. Innate immune signaling pathway agonists were purchased from Invivogen. Lyophilized stocks were reconstituted and stored according to manufacturer's instructions and at recommended concentrations. […] Innate immune signaling agonists were diluted in R10 media to the manufacturer's recommended working concentration and then added onto cells. 22:0 Lyso PC was then reconstituted from a lyophilized stock in R10 and then further diluted. The lipid was added onto cells at a final concentration of 20 μM. Cells were incubated for 2 days, then cultures were collected for endpoint analyses.
as §1

[6] = test system: human monocyte-derived dendritic cells (moDCs); assay: PAMP screen: viability of human moDCs with PRR agonist and 22:0 Lyso PC; type: cell-based; conditions: 2 days
Description: as §2
Quantification of Cell Viability.

[7] = test system: canine peripheral blood mononuclear cells (PBMCs); assay: IL-1β secretion by canine PBMCs (ELISA); type: cell-based; conditions: stimulus as labelled, no hyperactivating lipid, 2 days
Description: (§3) Isolation of PBMCs from Whole Blood. PBMCs were isolated from whole blood using density gradient centrifugation with Ficoll-Paque PLUS (Cytivia). Whole blood was diluted 1:1 with PBS, layered on top of Ficoll-Paque PLUS and centrifuged at 1000×g for 30 minutes at room temperature. PBMCs were collected, washed twice in PBS, and incubated with Ack lysis buffer (Lonza) to remove any remaining red blood cells.
(§4) Cell Culture and Stimulation. […] Cells were plated at 1×10^5 (canine cells) or 1×10^6 (human cells) per well in 96-well flat bottom tissue culture plates. Lyophilized Vaccigrade R848 (Invivogen) was reconstituted and diluted according to manufacturer's recommendations and added to cells at a final concentration of 1 μg/mL.
Quantification of Cytokine Secretion. IL-1β secretion from human PBMCs was assessed using one of the following kits: ELISA MAX Deluxe Set Human IL-1β kit (Biolegend), Invitrogen Human IL-1β kit, or the Lumit™ Human IL-1β Immunoassay (Promega). IFNγ secretion from human PBMCs was assessed using the ELISA MAX Deluxe Set Human IFNγ (Biolegend) and TNFα secretion from human PBMCs was assessed using the Human TNFα Uncoated ELISA kit (Invitrogen). […] IL-1β secretion from canine PBMCs was assessed using the Canine IL-1β/IL-1F2 DuoSet ELISA (R&D) according to manufacturer's instructions with the following modifications: i) total sample+buffer volume for incubation was reduced from 100 μL to 50 μL; ii) sample incubation was completed overnight at 4° C. on an orbital shaker. For all ELISAs, absorbance was measured at 450 nm, with a 570 nm correction, using a Spectramax M5e plate reader (Molecular Devices). For Lumit™ assays, luminescence was measured on all wavelengths using a Spectramax M5e plate reader (Molecular Devices) with an integration time of 500 ms. […]

[8] = test system: human PBMCs; assay: Cytokine secretion (IL-1β, IFNγ, TNFα) by human PBMCs; type: cell-based; conditions: stimulus as labelled, no hyperactivating lipid, 2 days
Description: as §3, §4
Quantification of Cytokine Secretion. IL-1β secretion from human PBMCs was assessed using one of the following kits: ELISA MAX Deluxe Set Human IL-1β kit (Biolegend), Invitrogen Human IL-1β kit, or the Lumit™ Human IL-1β Immunoassay (Promega). IFNγ secretion from human PBMCs was assessed using the ELISA MAX Deluxe Set Human IFNγ (Biolegend) and TNFα secretion from human PBMCs was assessed using the Human TNFα Uncoated ELISA kit (Invitrogen). ELISAs were performed according to manufacturer's instructions with the following modifications: i) total sample+buffer volume for incubation was reduced from 100 μL to 50 μL; ii) the top standard was prepared at […], with two-fold dilutions to […]; and iii) sample incubation was completed overnight at 4 C on an orbital shaker. Lumit™ assays were performed according to manufacturer's instructions. IL-1β secretion from canine PBMCs was assessed using the Canine IL-1β/IL-1F2 DuoSet ELISA (R&D) according to manufacturer's instructions with the following modifications: i) total sample+buffer volume for incubation was reduced from 100 μL to 50 μL; ii) sample incubation was completed overnight at 4° C. on an orbital shaker. For all ELISAs, absorbance was measured at 450 nm, with a 570 nm correction, using a Spectramax M5e plate reader (Molecular Devices). For Lumit™ assays, luminescence was measured on all wavelengths using a Spectramax M5e plate reader (Molecular Devices) with an integration time of 500 ms. To determine cytokine concentrations in supernatants, sample concentrations were interpolated using a standard curve via 4PL analysis on GraphPad Prism 9 (GraphPad Software). The interpolated results of samples were then adjusted for any dilutions made to the supernatant.

[9] = 10.3 μM lipid + LPS 1 μg/mL, 2 days, Table 1-5
[10] = 20.6 μM lipid + LPS, human moDCs, 4 donors, mean (SD in wrapped line below)
[11] = 41.3 μM lipid + LPS 1 μg/mL, 2 days, Table 1-2
[12] = 82.5 μM lipid + LPS, selected lipids, Table 1-3 (repeats Table 1-1)
[13] = 41.3 μM lipid + LPS 1 μg/mL, 2 days, relative to LPS-treated moDCs, Table 1-2
[14] = 82.5 μM lipid + LPS 1 μg/mL, 2 days, relative to LPS-treated moDCs, Table 1-1
[15] = high dose PAMP + 22:0 Lyso PC 20 μM

Compound	IL-1β secretion [2, 11] [pg/mL]	Relative Viability (%) ± SD [3, 13] [%]	Relative Viability (%) ± SD [3, 14] [%]	further results
CCCCCCCCCCCCCCCC(=O)OC[C@H](COP(=O)([O-])OCC[N+](C)(C)C)OC(=O)CCCC=O [POVPC, 1-palmitoyl-2-(5′-oxo-valeroyl)-sn-glycero-3-phosphocholine, reference compound]	121.5	92.1	79.5	IL-1β secretion [1, 9]: 49.1 pg/mL; IL-1β secretion [1, 10]: 60.6 pg/mL; Activity Units (AU) ± SD (lipid activity index) ([1]; lipid 1.3-82.5 μM + LPS): 0.00 ± 0.00 AU; IL-1β secretion [2, 12]: 168.5 pg/mL; Relative Viability (%) ± SD [3, 12]: 79.5%; Relative Viability (%) ± SD [4]: 97.3%
CCOC(=O)C1=Cc2ccc(-c3cccc(C#N)c3)cc2N=C(N)C1 [TL8-506]				IL-1β secretion (in words) [5, 15]: enabled IL-1β secretion; also recorded: induced IL-1β secretion
CCCCCCCCCCCCCCCC(=O)OCC(CSC[C@H](N)C(=O)N[C@@H](CO)C(=O)N[C@@H](CCCCN)C(=O)N[C@@H](CCCCN)C(=O)N[C@@H](CCCCN)C(=O)N[C@@H](CCCCN)C(=O)O)OC(=O)CCCCCCCCCCCCCCC (stereo partly drawn) [Pam2CSK4] (H-C(X1)SKKKK-OH; N-terminus and C-terminus assumed)				IL-1β secretion (in words) [5, 15]: enabled IL-1β secretion; also recorded: induced IL-1β secretion; IL-1β secretion (in words) ([5]; low dose PAMP + 22:0 Lyso PC): IL-1β secretion was only observed; cell viability (in words) [6, 15]: little to no effect on cell viability; cell viability (in words) ([6]; low dose PAMP + 22:0 Lyso PC): Neither R848 nor Pam2CSK4 at the lower concentrations tested affected cell viability
GM-CSF: human GM-CSF (Peprotech), added at 10 ng/mL				IL-1β secretion (in words) [7]: neither GM-CSF nor 2′3′cGAMP induced significant IL-1β secretion; IFNγ secretion, fold change relative to R848 alone (in words) [8]: neither GM-CSF nor 2′3′cGAMP elicited a substantial fold change in IFNγ secretion over R848 alone; IL-1β secretion (in words) [8]: did not induce levels of IL-1β secretion from human PBMCs significantly above background levels
CCCCCCCCCCCCCCCCCC(=O)OC[C@H](COP(=O)([O-])OCC[N+](C)(C)C)OC(=O)CCCCCCCCCCCCC [18:0-14:0 PC]	31.2	98.1	86.1	
CCCCCCCCCCCCCCCCCCC(=O)OC[C@@H](O)COP(=O)([O-])OCC[N+](C)(C)C [19:0 LYSO PC, 1-nonadecanoyl-2-hydroxy-sn-glycero-3-phosphocholine]	468.9	39.4	2.7	IL-1β secretion [1, 9]: 43.0 pg/mL; IL-1β secretion [1, 10]: 55.6 pg/mL; lipid activity index, ranking in words ([1]; lipid 1.3-82.5 μM + LPS): followed by 19:0 Lyso PC; Activity Units (AU) ± SD (lipid activity index) ([1]; lipid 1.3-82.5 μM + LPS): 6.34 ± 3.39 AU; IL-1β secretion [2, 12]: 209.3 pg/mL; Relative Viability (%) ± SD [3, 12]: 2.7%; Relative Viability (%) ± SD [4]: 96.4%
CCCCCCCC/C=C\CCCCCCCC(=O)OC[C@@H](O)COP(=O)([O-])OCC[N+](C)(C)C [18:1 Δ^9 LYSO PC]	34.8	97.8	91.5	
CCCCCCCCCCCCCCCC(=O)OC[C@@H](O)COP(=O)([O-])OCC[N+](C)(C)C [16:0 LYSO PC, 1-palmitoyl-2-hydroxy-sn-glycero-3-phosphocholine]	97.4	87.2	44.7	
CCCCCCCCCCCC(=O)OC[C@@H](O)COP(=O)([O-])OCC[N+](C)(C)C [12:0 LYSO PC]	54.5	96.6	91.1	IL-1β secretion [1, 9]: 43.1 pg/mL; IL-1β secretion [1, 10]: 44.2 pg/mL; IL-1β secretion [2, 12]: 115.3 pg/mL; Relative Viability (%) ± SD [3, 12]: 91.1%; Relative Viability (%) ± SD [4]: 97.3%
CCCCCCCCCCCCCCCCCCCCCCCC(=O)OC[C@@H](O)COP(=O)([O-])OCC[N+](C)(C)C [24:0 LYSO PC, 1-lignoceroyl-2-hydroxy-sn-glycero-3-phosphocholine]	38.8	94.6	96.0	IL-1β secretion [1, 9]: 36.5 pg/mL; IL-1β secretion [1, 10]: 36.6 pg/mL; IL-1β secretion [2, 12]: 39.7 pg/mL; Relative Viability (%) ± SD [3, 12]: 96.0%; Relative Viability (%) ± SD [4]: 96.8%
Nc1nc2c(ncn2[C@@H]2O[C@@H]3COP(=O)(O)O[C@H]4[C@@H](O)[C@H](n5cnc6c(N)ncnc65)O[C@@H]4COP(=O)(O)O[C@@H]2[C@@H]3O)c(=O)[nH]1 [2′3′cGAMP, reference compound]				IL-1β secretion (in words) [7]: neither GM-CSF nor 2′3′cGAMP induced significant IL-1β secretion; IFNγ secretion, fold change relative to R848 alone (in words) [8]: neither GM-CSF nor 2′3′cGAMP elicited a substantial fold change in IFNγ secretion over R848 alone
CCCCCCCCCCCCC(=O)OC[C@@H](O)COP(=O)([O-])OCC[N+](C)(C)C [13:0 LYSO PC, 1-tridecanoyl-2-hydroxy-sn-glycero-3-phosphocholine]	80.7	93.9	93.2	
CCCCCCCCCCCCCCCC(=O)OC[C@H](COP(=O)([O-])OCC[N+](C)(C)C)OC(=O)CCCCCCCC(=O)O [PAzePC, 1-palmitoyl-2-azelaoyl-sn-glycero-3-phosphocholine, reference compound]	191.7	95.6	78.8	IL-1β secretion [1, 9]: 47.9 pg/mL; IL-1β secretion [1, 10]: 59.0 pg/mL; Activity Units (AU) ± SD (lipid activity index) ([1]; lipid 1.3-82.5 μM + LPS): 1.81 ± 1.95 AU; IL-1β secretion [2, 12]: 153.4 pg/mL; Relative Viability (%) ± SD [3, 12]: 78.8%; Relative Viability (%) ± SD [4]: 98.0%
CCCCCCCCCCCCCCCCCC(=O)OC[C@H](COP(=O)([O-])OCC[N+](C)(C)C)OC(=O)CCCCCCCCCCCCCCC [18:0-16:0 PC]	20.1	100.3	85.3	
CCCCCCCC/C=C\CCCCCCCC(=O)O[C@H](COC(=O)CCCCCCCCCCCCCCC)COP(=O)([O-])OCC[N+](C)(C)C [16:0-18:1 PC (POPC)]	28.2	96.5	92.9	
CCCCCCC(=O)OC[C@@H](O)COP(=O)([O-])OCC[N+](C)(C)C [07:0 LYSO PC]	36.0	97.9	93.9	
CCCCCCCC(=O)OC[C@@H](O)COP(=O)([O-])OCC[N+](C)(C)C [08:0 LYSO PC]	32.2	96.7	95.3	
